Test results taken from PubChem BioAssay (NCI).
Where “and” joins values, the source holds several entries; their conditions need not be identical. Identical values can stand only once.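 A five-concentration, 48-hour dose response in 96-well plates underlies each endpoint, interpolated linearly between surrounding concentrations. The concentration for 50% growth inhibition is given as GI50. TGI: total growth inhibition.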

Experiments:
Assay in all cases: growth of human tumour cells (NCI), 48 h
[1] = test system: NCI/ADR-RES ovarian
[2] = test system: HOP-92 NSCLC
[3] = test system: SK-MEL-28 melanoma
[4] = test system: 786-0 renal
[5] = test system: COLO 205 colon
[6] = test system: IGROV1 ovarian
[7] = test system: M14 melanoma
[8] = test system: SK-OV-3 ovarian
[9] = test system: SK-MEL-2 melanoma
[10] = test system: RXF 393 renal

Structure (SMILES)	GI50 [1]	TGI [1]	GI50 [2]	TGI [2]	GI50 [3]	TGI [3]	GI50 [4]	TGI [4]	GI50 [5]	TGI [5]	GI50 [6]	TGI [6]	GI50 [7]	TGI [7]	GI50 [8]	TGI [8]	GI50 [9]	TGI [9]	GI50 [10]	TGI [10]
Cn1ncc(-c2ccc3c(=O)[nH]nc(CN)c3c2)c1-c1c(F)cc2ccccc2c1C#N	12.7 µM	50.5 µM	4.06 µM	18.1 µM	10.6 µM	23 µM	5.21 µM	18.9 µM	4.8 µM	18.3 µM	4.63 µM	19.7 µM	6.97 µM	21.1 µM	13.6 µM	26.8 µM	4.63 µM	16.3 µM	4.6 µM	16.6 µM
CCOC(=O)/C(C#N)=C/Nc1ccc(-c2nc3ccccc3[nH]2)cc1	41.4 µM	66.1 µM	42.1 µM	> 100 µM	22.5 µM	54.1 µM	27.2 µM	64.7 µM	28.8 µM	> 100 µM	22.7 µM	> 100 µM	62.3 µM	> 100 µM	25.6 µM	99.3 µM	42.6 µM	> 100 µM	76.7 µM	> 100 µM
CC1(C)[C@@H](OC(N)=O)C=C[C@]2(C=O)[C@H]3CC[C@]4(C)[C@@H](c5ccc(=O)oc5)[C@@H](Cl)C[C@]4(O)C3=CC[C@@H]12	0.00609 µM	0.0167 µM	0.0057 µM	0.0165 µM	0.00642 µM	0.0156 µM	0.00478 µM	0.0106 µM	0.00685 µM	0.0178 µM	0.00761 µM	0.0244 µM	0.00544 µM	0.0124 µM	0.00653 µM	0.0194 µM	0.00679 µM	0.0173 µM	0.00561 µM	0.0157 µM
COC(=O)[C@]12CC[C@@H](C)[C@H](C)[C@@H]1C1=CC[C@@H]3[C@@]4(C)CC(=O)[C@H](OC(=O)c5ccco5)[C@@]5(C)COC(=C45)C[C@@]3(C)[C@]1(C)CC2	6.37 µM	> 100 µM	14.9 µM	> 100 µM	0.579 µM	> 100 µM	2.24 µM	> 100 µM	0.342 µM	2.93 µM	3.71 µM	> 100 µM	0.654 µM	> 100 µM	4.67 µM	> 100 µM	5.63 µM	> 100 µM	67.9 µM	> 100 µM
N=C(N)SCCc1ccccn1	–	> 100 µM	–	> 100 µM	–	> 100 µM	–	> 100 µM	–	> 100 µM	–	> 100 µM	–	> 100 µM	–	> 100 µM	–	> 100 µM	–	> 100 µM
O=[N+]([O-])c1cc(F)c2cccnc2c1O	3.61 µM	45.3 µM	2.84 µM	9.01 µM	21.2 µM	> 100 µM	10.2 µM	94.6 µM	16.2 µM	54.2 µM	2.5 µM	14.7 µM	7.56 µM	40.9 µM	26.3 µM	> 100 µM	10.1 µM	94.4 µM	17.5 µM	76.3 µM
CCOC(=O)Cc1csc(NC(=O)COC(=O)c2ccc(OC)cc2)n1	> 100 µM	> 100 µM	7.58 µM	24.3 µM	> 100 µM	> 100 µM	35.7 µM	> 57.6 µM	> 95.9 µM	> 100 µM	2.99 µM	8.77 µM	> 100 µM	> 100 µM	> 75.4 µM	> 100 µM	> 100 µM	> 100 µM	> 70.8 µM	> 100 µM
CC(C)(C)C(=O)OCc1nc2cc3c(cc2c(=O)[nH]1)CCC3=O	> 100 µM	> 100 µM	> 100 µM	> 100 µM	> 100 µM	> 100 µM	> 100 µM	> 100 µM	> 100 µM	> 100 µM	> 100 µM	> 100 µM	> 100 µM	> 100 µM	> 100 µM	> 100 µM	> 100 µM	> 100 µM	> 100 µM	> 100 µM
CCCn1c(N)c(C(=O)CNc2ccc(I)cc2)c(=O)[nH]c1=O	> 25.3 µM	> 100 µM	7.86 µM	> 24.3 µM	> 100 µM	> 100 µM	4.21 µM	> 100 µM	–	> 100 µM	18 µM	> 100 µM	> 100 µM	> 100 µM	> 100 µM	> 100 µM	> 100 µM	> 100 µM	21.5 µM	> 100 µM
Cc1sc2ncn(Cc3ccc(Cl)c(Cl)c3)c(=O)c2c1C	27.5 µM	> 100 µM	18.4 µM	73.7 µM	77.9 µM	> 100 µM	34.2 µM	> 100 µM	63.2 µM	> 100 µM	9.28 µM	42.8 µM	24.4 µM	64 µM	46.8 µM	> 100 µM	27.7 µM	> 100 µM	> 100 µM	> 100 µM
COc1ccc(-c2c(N)n[nH]c2-c2cc(OC)c(OC)c(OC)c2)cc1	0.2 µM	2.22 µM	0.499 µM	> 100 µM	5.57 µM	> 100 µM	0.388 µM	35.6 µM	0.363 µM	–	0.769 µM	60.5 µM	0.135 µM	> 100 µM	0.211 µM	52.4 µM	0.215 µM	> 100 µM	0.239 µM	0.74 µM
CCOC(=O)c1ccccc1-c1c2ccc(=[N+](C)C)cc-2oc2cc(N(C)C)ccc12	27.2 µM	> 100 µM	0.619 µM	3.96 µM	0.687 µM	13 µM	0.94 µM	> 36.5 µM	0.143 µM	0.43 µM	0.332 µM	16.1 µM	0.448 µM	10.9 µM	0.306 µM	1.74 µM	0.579 µM	4.1 µM	0.692 µM	7.58 µM
CN(C)CCNc1nc2ccccc2c2c(=O)c3ccccc3sc12	1.96 µM	6.43 µM	1.68 µM	6.73 µM	2.08 µM	3.98 µM	1.49 µM	2.98 µM	1.44 µM	3.08 µM	1.81 µM	4.53 µM	1.86 µM	3.62 µM	4.68 µM	19 µM	1.78 µM	3.41 µM	1.51 µM	4.11 µM
O=C(O)C(=O)CBr	> 54.6 µM and 20.2 µM	> 94.4 µM and 44 µM	> 33.2 µM and 19.1 µM	> 49.9 µM and 34 µM	> 42.4 µM and 16.6 µM	> 62.8 µM and 32.2 µM	16.9 µM and 21.7 µM	31.3 µM and 36.5 µM	> 70.1 µM and 17.6 µM	> 100 µM and 39.5 µM	33.5 µM and 62.1 µM	> 100 µM	> 89.1 µM and 44 µM	> 100 µM	> 100 µM and 19.7 µM	> 100 µM and 36 µM	> 100 µM and 20 µM	> 100 µM and 37.5 µM	64 µM and 17 µM	> 100 µM and 31 µM
NS(=O)(=O)c1ccc(NC(=O)Nc2ccccc2F)cc1	–	> 100 µM	–	> 100 µM	–	> 100 µM	–	> 100 µM	–	> 100 µM	–	> 100 µM	–	> 100 µM	–	> 100 µM	–	> 100 µM	–	> 100 µM
Nc1c(C(=O)Nc2cccc(Br)c2)sc2nc3c(cc12)C(O)CCC3 (stereo not drawn)	0.435 µM	> 48.8 µM	0.383 µM	11.4 µM	4.43 µM	> 100 µM	0.645 µM	36.1 µM	0.41 µM	> 32 µM	0.833 µM	> 70.3 µM	0.36 µM	> 100 µM	0.57 µM	40.8 µM	0.484 µM	36.8 µM	0.361 µM	6.26 µM
COc1cc2c(cc1OC)-c1ncc3cc4c(cc3c1C2)OCO4	24.8 µM	49.6 µM	> 100 µM	> 100 µM	> 100 µM	> 100 µM	18.3 µM	45.5 µM	61.1 µM	> 100 µM	25 µM	59.6 µM	19.6 µM	82.5 µM	53 µM	> 100 µM	32.2 µM	75.8 µM	50.2 µM	> 100 µM
COc1ccc(/C=N/N=C(\[O-])c2ccncc2)cc1F.COc1ccc(/C=N\N=C(/[O-])c2ccncc2)cc1F.[Cu+2]	13.4 µM	28.8 µM	19.1 µM	38.6 µM	37.9 µM	> 100 µM	20.2 µM	44.3 µM	19.7 µM	42.2 µM	17.6 µM	40.2 µM	47.2 µM	> 100 µM	11.8 µM	24.1 µM	23 µM	53.2 µM	18.9 µM	32.9 µM
O=C(Nc1cc(-c2cccnc2)nc(NCCCN2CCOCC2)n1)c1cc(Br)cc(C(F)(F)F)c1	2.6 µM	9.11 µM	1.97 µM	7.62 µM	1.73 µM	3.48 µM	1.55 µM	3.17 µM	1.77 µM	3.47 µM	4.67 µM	19.5 µM	1.67 µM	3.32 µM	7.26 µM	19.9 µM	4.52 µM	17 µM	1.8 µM	3.61 µM
